According to patent US20190076392A1, “METHODS FOR TREATING CANCER” (Boston Biomedical, Inc., priority 2016, published 2019):

Columns and labels:
[1] = biological target: T1, human p-STAT3 (Homo sapiens, UniProt P40763); experiment: Immunofluorescence staining of xenograft tumor cells for p-STAT3; format: in vivo; conditions: human colon cancer xenograft tumor (SW480) in nude mice; treated vs control
T1 construct: p-STAT3 and β-CATENIN protein levels in human colon cancer xenograft tumor (SW480) in nude mice; endogenous in cells; host or cells: SW480 human colon cancer xenograft tumor in nude mice
From the text: (§1) The effects of 2-acetylnaphtho[2,3-b]furan-4,9-dione, a compound of formula (I), to tumor cells were studied by analyzing the tumor cells treated with the compound or without the compound (control) with immunofluorescence staining using antibodies specific for human p-STAT3 and 13-CATENIN.

[2] = test system: β-CATENIN; experiment: Immunofluorescence staining of xenograft tumor cells for β-CATENIN; format: in vivo; conditions: human colon cancer xenograft tumor (SW480) in nude mice; treated vs control
From the text: as §1

[3] = test system: Paca-2 human pancreatic cancer; experiment: Human PDAC xenograft tumor (Paca-2) in nude mice; format: in vivo
From the text: FIGS. 5A and 5B show an exemplary effect of a 2-acetylnaphtho[2,3-b]furan-4,9-dione and gemcitabine treatment on pancreatic ductal adenocarcinoma (PDAC) in an xenograft tumor mouse model according to certain embodiments of the present disclosure.
The effects of 2-acetylnaphtho[2,3-b]furan-4,9-dione, a compound of formula (I), on a human PDAC xenograft tumor (Paca-2) in nude mice were studied. Specifically, immunosuppressed mice with Paca-2 human pancreatic cancer were given 2-acetylnaphtho[2,3-b]furan-4,9-dione (20 mg/kg) or vehicle control IP daily or gemcitabine (120 mg/kg) or vehicle control IP every 3 days. Tumor size was evaluated periodically during treatment. Each point represents the mean+SEM of five tumors.

[4] = test system: human pancreatic adenocarcinoma (Panc-1); experiment: Human pancreatic adenocarcinoma (Panc-1) xenograft in immunosuppressed mice; format: in vivo
From the text: FIG. 6 show an exemplary effect of 2-acetylnaphtho[2,3-b]furan-4,9-dione, gemcitabine (Gemzar), and the combination of 2-acetylnaphtho[2,3-b]furan-4,9-dione and gemcitabine treatment on tumor volume in an xenograft tumor mouse model according to certain embodiments of the present disclosure.
The effects of 2-acetylnaphtho[2,3-b]furan-4,9-dione, a compound of formula (I), gemcitabine, and a combination of 2-acetylnaphtho[2,3-b]furan-4,9-dione and gemcitabine were studied. Specifically, immunosuppressed mice with established human pancreatic adenocarcinoma (Panc-1) were treated with vehicle control, 2-acetylnaphtho[2,3-b]furan-4,9-dione (100 mg/kg, PO, bid), gemcitabine (Gemzar, 80 mg/kg, IV, q3d), or the combination of 2-acetylnaphtho[2,3-b]furan-4,9-dione and gemcitabine. Tumor size was evaluated periodically during treatment. Each point represents the mean+SEM of five tumors.

[5] = Phase Ib study in mPDAC patients, safety and adverse events; format: in vivo, human; conditions: in combination with gemcitabine and nab-paclitaxel
From the text: The effects of 2-acetylnaphtho[2,3-b]furan-4,9-dione, a compound of formula (I), in combination with gemcitabine and nab-paclitaxel in patients with metastatic pancreatic ductal adenocarcinoma (mPDAC) were studied in a Phase Ib extension, open label, multi-center study.
In that clinical study, the safety, tolerability and the recommended Phase II dose (RP2D), PK profile, and signs of anti-cancer activity of 2-acetylnaphtho[2,3-b]furan-4,9-dione in combination with nab-paclitaxel and gemcitabine were assessed in adult patients with metastatic pancreatic cancer. In each treatment cycle, 2-acetylnaphtho[2,3-b]furan-4,9-dione was administered at 240 mg BID for 4 weeks in combination with nab-paclitaxel 125 mg/m^2 and gemcitabine 1000 mg/m^2 administered weekly for 3 out of the 4 weeks. The treatment continued in 28-day cycles.
The patients received continuous oral administration of BBI-608 twice daily in 28 day cycles. A standard gemcitabine and nab-paclitaxel regimen was administered on days 1, 8 and 15 of every 28 day study cycle. Specifically, BBI-608 was administered at 240 mg BID in combination with gemcitabine 1000 mg/m^2 and nab-paclitaxel 125 mg/m^2 administered weekly for 3 out every 4 weeks until progression of disease, unacceptable toxicity, or another discontinuation criterion was met. Pharmacokinetics and pharmacodynamics were evaluated and objective tumor response was assessed every 8 weeks using Response Evaluation Criteria In Solid Tumors (RECIST 1.1).

[6] = test system: STAT3; experiment: Clinical trials, overall survival by STAT3/pSTAT3 level; format: in vivo, human; conditions: patients with higher expression levels of STAT3 (pSTAT3 before treatment), at least in CRC patients
From the text: Thus, the higher the level of pSTAT3 found in a cancer patient before treatment, at least in CRC patients, the higher the overall survival (OS) upon administering a treatment comprising at least one compound of formula (I).

[7] = test system: STAT3 pathway; conditions: according to U.S. Pat. No. 8,877,803; read-out: STAT3 pathway activity, cellular IC50; cited from earlier work

T1 sequence (P40763 whole entry): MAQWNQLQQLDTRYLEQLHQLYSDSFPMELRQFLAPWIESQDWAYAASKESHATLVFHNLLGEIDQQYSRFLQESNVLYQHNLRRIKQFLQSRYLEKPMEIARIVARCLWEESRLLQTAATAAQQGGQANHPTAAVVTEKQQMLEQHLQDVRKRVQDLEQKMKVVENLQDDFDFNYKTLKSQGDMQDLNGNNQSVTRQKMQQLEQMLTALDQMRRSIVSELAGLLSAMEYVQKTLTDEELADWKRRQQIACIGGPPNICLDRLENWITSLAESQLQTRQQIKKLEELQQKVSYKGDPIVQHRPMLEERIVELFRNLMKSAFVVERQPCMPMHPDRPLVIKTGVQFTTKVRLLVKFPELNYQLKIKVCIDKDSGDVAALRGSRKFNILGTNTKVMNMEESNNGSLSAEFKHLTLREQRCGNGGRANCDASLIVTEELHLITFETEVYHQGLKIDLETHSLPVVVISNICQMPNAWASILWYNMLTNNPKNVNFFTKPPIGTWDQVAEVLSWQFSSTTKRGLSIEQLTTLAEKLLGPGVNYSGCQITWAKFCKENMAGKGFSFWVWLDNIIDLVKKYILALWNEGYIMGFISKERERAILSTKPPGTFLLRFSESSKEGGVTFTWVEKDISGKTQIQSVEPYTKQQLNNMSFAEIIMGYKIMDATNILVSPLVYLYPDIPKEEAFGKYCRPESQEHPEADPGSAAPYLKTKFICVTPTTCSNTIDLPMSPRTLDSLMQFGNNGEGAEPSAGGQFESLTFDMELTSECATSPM

Row | SMILES | tumor cells with positive staining for human p-STAT3 [1] | tumor cells with positive staining for β-CATENIN [2] | tumor growth (tumor size) ([3]; 20 mg/kg IP daily) | tumor growth (tumor size) ([4]; 100 mg/kg, PO, bid) | grade 3 AEs related to napabucasin, number of patients [5] [patients] | grade 3 dehydration related to napabucasin, number of patients [5] [patient] | grade 3 diarrhea related to napabucasin, number of patients [5] [patient] | grade 3 fatigue related to napabucasin, number of patients [5] [patients] | grade 3 hypokalemia related to napabucasin, number of patients [5] [patient] | grade 3 nausea related to napabucasin, number of patients [5] [patient] | most common adverse events (AEs) related to napabucasin [5] | overall survival after treatment [6] | IC50 [7] [nM] | tumor growth (tumor size) ([3]; 120 mg/kg IP every 3 days) | tumor growth (tumor size) ([4]; Gemzar, 80 mg/kg, IV, q3d)
1 | CC(=O)c1cc2c(o1)C(=O)c1ccccc1C2=O [2-acetylnaphtho[2,3-b]furan-4,9-dione] | effectively inhibited | effectively inhibited | effective at inhibiting tumor growth | certain effects in inhibiting tumor growth | 9 | 1 | 1 | 5 | 1 | 1 | grade 1 diarrhea, abdominal pain, nausea, and fatigue | prolonged overall survival | ~250 | – | –
2 | Nc1ccn([C@@H]2O[C@H](CO)[C@@H](O)C2(F)F)c(=O)n1 [gemcitabine, reference compound] | – | – | – | – | – | – | – | – | – | – | – | – | – | only a marginal effect on tumor growth | certain effects in inhibiting tumor growth
